pIC50: −log10 of the molar value.
Legend:
[1] = biological target: T1, CDK12 (aa686-1082)/Cyclin K complex (Homo sapiens, UniProt Q9NYV4); assay: CDK12 kinase inhibition assay (Caliper/LabChip EZ Reader); format: biochemical; conditions: CDK12 (aa686-1082)/Cyclin K 50 nM, ATP 2 mM, 3 hr at 27° C.
T1 construct: CDK12 (aa686-1082)/Cyclin K complex
Experimental: (§1) Compounds of the invention were assayed for inhibition of CDK7, CDK9, CDK12, and CDK2 activity at Biortus Biosciences (Jiangyin, Jiangsu Province, P.R. of China) using kinase assays for each CDK developed with a Caliper/LabChip EZ Reader (Perkin Elmer, Waltham, Mass.).
(§2) Furthermore, the CDK9 inhibition assay used CDK9/Cyclin T1 complex (8 nM) and “5-FAM-CDK9tide” peptide substrate (2 μM, synthesized fluorophore-labeled peptide with the following sequence: 5-FAM-GSRTPMY-NH2 where 5-FAM is defined above and NH2 signifies a C-terminal amide) with 10 mM MgCl2 in the buffer composition listed above. The CDK12 inhibition assay used CDK12 (aa686-1082)/Cyclin K complex (50 nM) and “5-FAM-CDK9tide” (2 μM) as defined above, with 2 mM MgCl2 in the buffer composition above. Additionally, the CDK2 inhibition assay used CDK2/Cyclin E1 complex (0.5 nM) and “5-FAM-CDK7tide” (2 μM) as defined above, with 2 mM MgCl2 in the buffer composition listed above.
(§3) The incubation period at 27° C. for each CDK inhibition assay was chosen such that the fraction of phosphorylated peptide product produced in each assay, relative to the total peptide concentration, was approximately 20% (±5%) for the uninhibited kinase (35 min. for CDK7, 35 min. for CDK2, 3 hr. for CDK12, 15 min. for CDK9).

[2] = test system: A673 cells; assay: Inhibition of proliferation of A673 cells (CyQUANT, 72 hour); format: cell-based, human; conditions: read-out: Inhibition of Proliferation of A673 Cells (calculated IC50)
Experimental: A673 Cells: A673 cells are a cell line derived from human muscle Ewing's sarcoma. Representative compounds of the invention were tested at different concentrations (from 4 μM to […]; 0.5 log serial dilutions) for their ability to inhibit the proliferation of A673 cells. Known CDK inhibitors dinaciclib or N-((1S,3R)-3-((5-chloro-4-(1H-indol-3-yl)pyrimidin-2-yl)amino)cyclohexyl)-5-((E)-4-(dimethylamino)but-2-enamido)picolinamide and triptolide were used as positive controls. Cells were grown in Dulbecco's Modified Eagle's Medium, +10% FBS+1 mM Sodium Pyruvate. The cells were cultured at 37° C. in a humidified chamber in the presence of 5% CO2. Proliferation assays were conducted over a 72 hour time period. CyQUANT® (Life Technologies, Chicago, Ill. USA) was used to assess the anti-proliferative effects of the compounds following manufacturer's directions and utilizing the reagents supplied with the CyQUANT® kit.

[3] = biological target: CDK7/Cyclin H/MAT1 complex (Homo sapiens, UniProt P50613); assay: CDK7 kinase inhibition assay (Caliper/LabChip EZ Reader); format: biochemical; conditions: CDK7/Cyclin H/MAT1 6 nM, ATP 2 mM, 35 min at 27° C.
Experimental: as §1, §2, §3

[4] = biological target: CDK2/Cyclin E1 complex (Homo sapiens, UniProt P24941); assay: CDK2 kinase inhibition assay (Caliper/LabChip EZ Reader); format: biochemical; conditions: CDK2/Cyclin E1 0.5 nM, ATP 2 mM, 35 min at 27° C.
Experimental: as §1, §2, §3

[5] = biological target: CDK9/Cyclin T1 complex (Homo sapiens, UniProt P50750); assay: CDK9 kinase inhibition assay (Caliper/LabChip EZ Reader); format: biochemical; conditions: CDK9/Cyclin T1 8 nM, ATP 2 mM, 15 min at 27° C.
Experimental: as §1, §2, §3

Chain of CDK9/Cyclin T1 complex (P50750 whole entry): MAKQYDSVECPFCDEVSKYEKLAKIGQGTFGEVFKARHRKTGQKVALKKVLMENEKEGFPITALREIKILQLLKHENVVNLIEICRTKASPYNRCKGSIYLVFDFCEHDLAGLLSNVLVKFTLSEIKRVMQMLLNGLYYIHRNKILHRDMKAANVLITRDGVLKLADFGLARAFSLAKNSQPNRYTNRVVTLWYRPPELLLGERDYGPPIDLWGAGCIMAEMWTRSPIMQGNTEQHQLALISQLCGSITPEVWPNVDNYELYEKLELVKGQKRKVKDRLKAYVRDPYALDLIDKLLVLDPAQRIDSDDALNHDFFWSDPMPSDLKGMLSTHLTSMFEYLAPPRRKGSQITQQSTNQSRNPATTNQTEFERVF
Chain of CDK9/Cyclin T1 complex (O60563 whole entry partner): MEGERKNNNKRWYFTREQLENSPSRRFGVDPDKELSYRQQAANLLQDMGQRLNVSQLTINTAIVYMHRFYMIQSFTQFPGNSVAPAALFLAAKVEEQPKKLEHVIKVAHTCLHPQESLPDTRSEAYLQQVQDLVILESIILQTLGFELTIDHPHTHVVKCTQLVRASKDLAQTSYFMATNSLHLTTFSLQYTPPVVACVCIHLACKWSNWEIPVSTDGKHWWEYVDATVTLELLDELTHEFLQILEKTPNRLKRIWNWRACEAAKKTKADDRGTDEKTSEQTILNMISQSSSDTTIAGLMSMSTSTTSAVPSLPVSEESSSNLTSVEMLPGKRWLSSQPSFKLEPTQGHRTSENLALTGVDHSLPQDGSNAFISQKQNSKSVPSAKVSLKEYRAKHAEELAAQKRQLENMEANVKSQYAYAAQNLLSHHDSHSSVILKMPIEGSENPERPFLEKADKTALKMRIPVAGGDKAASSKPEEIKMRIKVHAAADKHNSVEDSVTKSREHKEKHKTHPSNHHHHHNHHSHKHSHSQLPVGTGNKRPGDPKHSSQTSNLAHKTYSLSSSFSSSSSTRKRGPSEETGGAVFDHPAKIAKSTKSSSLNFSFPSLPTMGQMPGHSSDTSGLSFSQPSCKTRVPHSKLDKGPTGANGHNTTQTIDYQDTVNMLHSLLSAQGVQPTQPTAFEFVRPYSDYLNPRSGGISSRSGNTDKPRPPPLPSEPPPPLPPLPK
Chain of CDK7/Cyclin H/MAT1 complex (P50613 whole entry): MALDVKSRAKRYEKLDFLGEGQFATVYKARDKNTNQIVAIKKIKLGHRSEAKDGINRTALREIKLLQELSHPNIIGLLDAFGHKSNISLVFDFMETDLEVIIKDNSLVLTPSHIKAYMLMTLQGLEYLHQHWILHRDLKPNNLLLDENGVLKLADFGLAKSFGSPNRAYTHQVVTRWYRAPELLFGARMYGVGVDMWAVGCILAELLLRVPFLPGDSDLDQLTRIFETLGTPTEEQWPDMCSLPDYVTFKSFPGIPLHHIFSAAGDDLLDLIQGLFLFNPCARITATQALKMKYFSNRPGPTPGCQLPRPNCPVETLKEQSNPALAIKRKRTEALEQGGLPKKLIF
Chain of CDK7/Cyclin H/MAT1 complex (P51946 whole entry partner): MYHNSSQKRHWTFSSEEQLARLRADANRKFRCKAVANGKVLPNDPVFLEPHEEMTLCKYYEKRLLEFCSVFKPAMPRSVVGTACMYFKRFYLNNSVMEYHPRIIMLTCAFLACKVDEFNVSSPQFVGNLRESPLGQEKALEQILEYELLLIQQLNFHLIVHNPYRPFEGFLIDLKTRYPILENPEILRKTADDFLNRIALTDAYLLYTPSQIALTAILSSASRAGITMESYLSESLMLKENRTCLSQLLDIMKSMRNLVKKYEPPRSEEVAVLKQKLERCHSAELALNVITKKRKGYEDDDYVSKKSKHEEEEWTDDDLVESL
Chain of CDK7/Cyclin H/MAT1 complex (P51948 whole entry partner): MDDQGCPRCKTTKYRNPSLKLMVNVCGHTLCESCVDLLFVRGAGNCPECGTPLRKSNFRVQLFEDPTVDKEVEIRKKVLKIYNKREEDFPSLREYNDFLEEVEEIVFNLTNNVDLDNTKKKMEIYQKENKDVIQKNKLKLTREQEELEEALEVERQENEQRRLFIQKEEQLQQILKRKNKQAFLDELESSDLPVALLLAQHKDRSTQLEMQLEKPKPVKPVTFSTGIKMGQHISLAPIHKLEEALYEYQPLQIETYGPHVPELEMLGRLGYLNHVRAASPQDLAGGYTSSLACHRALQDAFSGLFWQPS
T1 sequence (Q9NYV4 686-1082): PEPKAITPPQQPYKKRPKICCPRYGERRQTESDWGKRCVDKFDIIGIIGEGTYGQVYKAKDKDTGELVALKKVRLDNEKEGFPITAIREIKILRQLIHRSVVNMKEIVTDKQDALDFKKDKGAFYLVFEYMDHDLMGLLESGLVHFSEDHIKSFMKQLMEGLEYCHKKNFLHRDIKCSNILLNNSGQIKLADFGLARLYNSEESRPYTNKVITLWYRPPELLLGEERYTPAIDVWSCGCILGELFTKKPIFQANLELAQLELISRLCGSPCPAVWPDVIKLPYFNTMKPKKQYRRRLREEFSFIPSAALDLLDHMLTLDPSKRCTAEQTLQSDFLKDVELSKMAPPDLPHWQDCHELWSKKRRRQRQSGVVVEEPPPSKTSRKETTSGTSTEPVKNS
T1 sequence (O75909 whole entry partner, the tested form may be a part): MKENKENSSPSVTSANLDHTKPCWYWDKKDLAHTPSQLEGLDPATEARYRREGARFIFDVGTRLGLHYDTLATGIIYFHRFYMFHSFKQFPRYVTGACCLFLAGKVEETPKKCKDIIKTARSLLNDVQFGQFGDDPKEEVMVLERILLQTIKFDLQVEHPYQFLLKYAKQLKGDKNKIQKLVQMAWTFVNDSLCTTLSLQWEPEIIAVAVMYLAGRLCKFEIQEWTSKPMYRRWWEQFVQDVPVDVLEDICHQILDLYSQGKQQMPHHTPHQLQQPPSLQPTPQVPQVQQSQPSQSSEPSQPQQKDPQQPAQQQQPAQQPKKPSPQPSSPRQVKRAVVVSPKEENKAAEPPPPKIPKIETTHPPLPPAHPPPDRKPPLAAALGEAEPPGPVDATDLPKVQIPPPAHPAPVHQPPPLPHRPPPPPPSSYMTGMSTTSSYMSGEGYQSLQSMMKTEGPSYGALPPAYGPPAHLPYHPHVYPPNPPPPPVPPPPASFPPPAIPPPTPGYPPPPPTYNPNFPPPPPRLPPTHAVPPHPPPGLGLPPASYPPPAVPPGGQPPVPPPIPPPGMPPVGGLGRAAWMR

| SMILES | pIC50 [1] | pIC50 [2] | pIC50 [3] | pIC50 [4] | pIC50 [5] |
| --- | --- | --- | --- | --- | --- |
| Clc1cnc(NC2CCCNC2)nc1-c1c[nH]c2ccccc12 (centres unmarked) [Compound 100] | 5.30 to 6.70 | > 7.70 | > 7.70 | 5.30 to 6.70 | 5.30 to 6.70 |
| Clc1cnc(NC2CCCNC2)nc1-c1c[nH]c2ccccc12 (centres unmarked) [Compound 101] | 5.30 to 6.70 | 6.70 to 7.70 | 5.30 to 6.70 | 5.30 to 6.70 | 5.30 to 6.70 |
| FC(F)(F)c1cnc(NC2CCCNC2)nc1-c1c[nH]c2ccccc12 (centres unmarked) [Compound 102] | 6.70 to 7.70 | > 7.70 | > 7.70 | 5.30 to 6.70 | 6.70 to 7.70 |
| CCc1cnc(NC2CCCNC2)nc1-c1c[nH]c2ccccc12 (centres unmarked) [Compound 105] | 5.30 to 6.70 | 6.70 to 7.70 | 6.70 to 7.70 | ≤ 5.30 | ≤ 5.30 |
| Cc1[nH]c2ccccc2c1-c1nc(NC2CCCNC2)ncc1Cl (centres unmarked) [Compound 106] | 5.30 to 6.70 | 6.70 to 7.70 | 6.70 to 7.70 | ≤ 5.30 | 5.30 to 6.70 |
| Cc1ccc2[nH]cc(-c3nc(NC4CCCNC4)ncc3Cl)c2c1 (centres unmarked) [Compound 108] | 5.30 to 6.70 | 5.30 to 6.70 | 6.70 to 7.70 | 5.30 to 6.70 | 5.30 to 6.70 |
| CCc1cnc(NC2CCCNC2)nc1-c1n[nH]c2ccccc12 (centres unmarked) [Compound 110] | 5.30 to 6.70 | 6.70 to 7.70 | 6.70 to 7.70 | 5.30 to 6.70 | 5.30 to 6.70 |
| Fc1cc2[nH]cc(-c3nc(NC4CCCNC4)ncc3Cl)c2cc1F (centres unmarked) [Compound 111] | 6.70 to 7.70 | 6.70 to 7.70 | > 7.70 | 5.30 to 6.70 | 6.70 to 7.70 |
| OC1CCNCC1Nc1ncc(Cl)c(-c2c[nH]c3ccccc23)n1 (centres unmarked) [Compound 113] | 5.30 to 6.70 | 5.30 to 6.70 | 6.70 to 7.70 | ≤ 5.30 | ≤ 5.30 |
| CC1NCCCC1Nc1ncc(Cl)c(-c2c[nH]c3ccccc23)n1 (centres unmarked) [Compound 114] | 5.30 to 6.70 | 6.70 to 7.70 | 6.70 to 7.70 | 5.30 to 6.70 | 5.30 to 6.70 |
| CC1(Nc2ncc(Cl)c(-c3c[nH]c4ccccc34)n2)CCCNC1 (centres unmarked) [Compound 115] | ≤ 5.30 | 5.30 to 6.70 | 5.30 to 6.70 | ≤ 5.30 | ≤ 5.30 |
| Clc1cnc(NC2CNCCC2c2ccccc2)nc1-c1c[nH]c2ccccc12 (centres unmarked) [Compound 116] | ≤ 5.30 | 5.30 to 6.70 | ≤ 5.30 | ≤ 5.30 | ≤ 5.30 |
| Clc1cnc(NC2CCCNC2)nc1-c1c[nH]c2ccncc12 (centres unmarked) [Compound 117] | 5.30 to 6.70 | 6.70 to 7.70 | 6.70 to 7.70 | 5.30 to 6.70 | 5.30 to 6.70 |
| CCc1cnc(NC2CCCNC2)nc1-c1n[nH]c2ccc(C)cc12 (centres unmarked) [Compound 120] | 5.30 to 6.70 | – | 5.30 to 6.70 | ≤ 5.30 | ≤ 5.30 |
| CC1CCNCC1Nc1ncc(Cl)c(-c2c[nH]c3ccccc23)n1 (centres unmarked) [Compound 126] | 5.30 to 6.70 | – | 6.70 to 7.70 | 5.30 to 6.70 | 5.30 to 6.70 |
| CCC1(Nc2ncc(Cl)c(-c3c[nH]c4ccccc34)n2)CCCNC1 (centres unmarked) [Compound 128] | ≤ 5.30 | – | ≤ 5.30 | ≤ 5.30 | ≤ 5.30 |
| CC1CCC(Nc2ncc(Cl)c(-c3c[nH]c4ccccc34)n2)CN1 (centres unmarked) [Compound 129] | 5.30 to 6.70 | 6.70 to 7.70 | 6.70 to 7.70 | – | – |
| Clc1cnc(NC2(c3ccccc3)CCCNC2)nc1-c1c[nH]c2ccccc12 (centres unmarked) [Compound 130] | ≤ 5.30 | 5.30 to 6.70 | ≤ 5.30 | – | – |
| FC(F)(F)c1cnc(NC2CCCNC2)nc1-c1c[nH]c2c(-c3ccncc3)cccc12 (centres unmarked) [Compound 162] | 5.30 to 6.70 | > 7.70 | 6.70 to 7.70 | – | 5.30 to 6.70 |
| FC(F)(F)c1cnc(NC2CCCNC2)nc1-c1c[nH]c2c(Br)cccc12 (centres unmarked) [Compound 163] | 5.30 to 6.70 | 6.70 to 7.70 | 6.70 to 7.70 | – | 5.30 to 6.70 |
| Cn1cc(-c2cccc3c(-c4nc(NC5CCCNC5)ncc4C(F)(F)F)c[nH]c23)cn1 (centres unmarked) [Compound 164] | 5.30 to 6.70 | > 7.70 | 6.70 to 7.70 | – | 5.30 to 6.70 |
| CC1(O)CCC(c2cccc3c(-c4nc(NC5CCCNC5)ncc4C(F)(F)F)c[nH]c23)CC1 (centres unmarked) [Compound 193] | 5.30 to 6.70 | – | 6.70 to 7.70 | 5.30 to 6.70 | 5.30 to 6.70 |
| CC1(O)CCN(C(=O)c2ccc3c(-c4nc(NC5CCCNC5)ncc4C(F)(F)F)c[nH]c3c2)C1 (centres unmarked) [Compound 220] | 5.30 to 6.70 | – | > 7.70 | ≤ 5.30 | ≤ 5.30 |
| CC(C)C1CCC(Nc2nccc(-c3c[nH]c4ccccc34)n2)CN1 (centres unmarked) [Compound 237] | 5.30 to 6.70 | – | 6.70 to 7.70 | 5.30 to 6.70 | ≤ 5.30 |
| FC(F)(F)c1cnc(N[C@H]2CCCNC2)nc1-c1c[nH]c2cc(-n3ccnc3)ccc12 [Compound 248] | 5.30 to 6.70 | – | > 7.70 | 5.30 to 6.70 | 5.30 to 6.70 |
| FC(F)(F)c1cnc(NC2CNCC(c3nnc4ccccn34)C2)nc1-c1c[nH]c2ccccc12 (centres unmarked) [Compound 268] | – | 5.30 to 6.70 | – | – | – |
| CCc1cnc(N[C@H]2CCCNC2)nc1-c1c[nH]c2cc(S(C)(=O)=O)ccc12 [Compound 271] | – | 5.30 to 6.70 | – | – | – |
| CSc1cnc(NC2CCCNC2)nc1-c1c[nH]c2cc(C#N)ccc12 (centres unmarked) [Compound 272] | – | 6.70 to 7.70 | – | – | – |
| CCc1cnc(N[C@H]2CCCNC2)nc1-c1c[nH]c2c(S(=O)(=O)O)cccc12 [Compound 362] | ≤ 5.30 | – | 6.70 to 7.70 | ≤ 5.30 | ≤ 5.30 |
| CCc1cnc(NC2CCCNC2)nc1-c1c[nH]c2c(S(=O)O)cccc12 (centres unmarked) [Compound 363] | ≤ 5.30 | – | 6.70 to 7.70 | ≤ 5.30 | ≤ 5.30 |
